The values that follow come from patent publication EP0361645B1, “Organic hydrazine derivatives for pharmaceutical use” (ROHM AND HAAS COMPANY, priority 1988, dated 1990).

One assay relates to M. sexta. As to the kind of experiment: Hemolymph ecdysteroid titers (radioimmunoassay) and weight gain of fourth instar M. sexta fed compound in artificial diet. It is filed as in vivo, Manduca sexta. Here is the method: The invention will now be further described by way of exemplification and by reference to the drawings in which; • Figure 1. Both 20-hydroxyecdysone and Example No. 3 induce process elaboration (A) and inhibition of cell proliferation (B) in Kr cells in a dose-dependent manner. Initial cell density was 2 X 10^6 cells/ml; after incubation of 1 ml aliquots of the cells with the compound for 48 hours the cells were triturated gently and the percentage of cells responding (with processes longer than approximately 17 um, see Cherbas et al. 189 Wilhelm Roux's Arch. 1 (1980)) and total cell density was determined by hemocytom- eter counting, relative to ethanol (1 ul)-treated controls. Determinations were in triplicate for each dose. […] Induction of acetylcholinesterase by varying concentrations of 20-hydroxyecdysone and Example No. 3. Kr cells at an initial density of 3 X 10^6 cells/ml (10 ml per sample) were incubated with the agonist for three days. After harvesting, by centrifugation at 3000 X g, the cell pellets were washed with Robb's Drosophila saline (18, 2 X 5 ml) at 4 ° C, then lysed by sonication in 1 ml of phosphate buffer (pH 7.4, I = 0.1 M) containing 0.5 M NaCI, 0.25 M EDTA and 0.5% TRITON? X-100. See Cherbas, 197 Science 275 (1977). Triton is a registered trademark of Rohm and Haas Company for a alkylaryl polyoxyethylene glycol surfactant. After centrifugation at 16,000 X g, the supernatants were assayed for acetylcholinesterase activity by an adaptation of the method of Ellman et al., 7 Biochem. Pharmacol. 88 (1961), by subtracting out any 412 nm absorbance observed in incubations in the presence of 2 X 10-5 eserine sulfate. Thus reaction mixtures contained 50 ul of enzyme extract, 20 ul eserine (blank tubes only) and 1.0 ml of 0.5 mM acetylthiocholine, 0.3 mM dithiobisnitrobenzoic acid in phosphate buffer (pH 7.4, I = 0.1 M). Incubations were at 25 ° C for two hours; reactions in active tubes were terminated by addition of eserine. Absorbance at 412 nm was then measured. Protein concentration in extracts was measured by the Biorad method. […] Scatchard plot of ^3H-ponasterone A binding to Kr cell cytosolic receptor extracts in the presence of differing concentrations of Example No. 3. Cytosolic extract preparation and ecdysteroid receptor assays were essentially as described in Sage, 111 Meth. in Enzymol. 458 (1985). Example No. 3 was added in 1 ul DMSO to 50 ul of radioligand in 10 mM Tris buffer (pH 7.2) and 50 ul of undiluted cytosol extract. After incubation overnight at 0.5 ° C, bound label was separated from free by addition of 300 ul 1% HCI-washed charcoal (Sigma) and 0.1% Dextran T70 (Pharmacia) in Tris buffer, centrifugation (13,000 X g, 3 min, 4 ° C) and liquid scintillation counting of a 300 ul aliquot of the supernatant in 15 ml Hydrofluor (National Diagnostics). Points are means of duplicate determinations. […] Relative ability of 20 hydroxyecdysone and Example No. 3 to displace ^3H-ponasterone A from cytosolic receptor extracts. Conditions were as in Figure 3 except that only 0.5 nM ponasterone A was used. • Points are means of duplicate determinations. For 20-hydroxyecdysone EC50 = 0.1 uM while for Example No. 3 EC50 = 3.0 uM. Control binding = 10 femtomoles ^3H-ponasterone A bound per mg cytosol protein. • Figure 4. […] Ecdysteroid titers were measured by a radioimmunoassay adapted from Warren et al., 40 Experientia 393 (1984) with Protein A-Staph. aureus suspension (Sigma) used as the reagent to separate bound from free ligand. […]

Assay [1] has as its system ligated M. sexta abdomens (L4D1). Briefly: Onset of molting in ligated L4D1 M. sexta abdomens (injection). It is filed as in vivo. As to conditions: injected into L4D1 abdomens. Here is the method:
(§1) L4D1 means fourth instar, first day after molting. L4 animals 36 hours after ecdysis were ligated, decapitated and next day injected with varying doses of compound in 1 - 2 ul DMSO. They were scored as follows: 0 = normal L4 abdomens with no L5 crochets or spiracle apolysis; 1 = exposed dorsal vessel (response to moderate levels of molting hormone in the presence of low JH levels); 2 = L5 crochets formed but no spiracle apolysis; 3 = L5 crochets formed and mild spiracle apolysis; 4 = strong molting response, both L5 crochets and spiracle cuticle synthesized. These methods are an adaptation of the method of J. W. Truman, L. M. Riddiford, L. Safranek, 39 Dev. Biol 247 (1974). Injection and scoring of L5D3 abdomens (weighing 6.5 - 7.5 g) are also adaptations of previous methods in H. F. Nijhout, 22 J. Insect Physiol. 453 (1976). […] Animals were held over moistened filter paper at 25 ° C and were scored after three days. […] For both L4 and L5 abdomens, 50% effective doses were determined by plotting the mean score for all individuals vs. dose, then determining the dose which gives a score of 2.0 and 1.5 respectively. Intact L5D0 hornworms were either allowed to feed on treated commercial black cutworm diet or injected into a proleg and scored after 48 hours. The 50% effective dose was calculated by plotting percentage of the population bearing a prematurely apolysed head capsule vs. dose. […]

Assay [2] deals with ligated M. sexta abdomens (L5D3). Briefly: Onset of pupal development in ligated L5D3 M. sexta abdomens (injection). In kind it is in vivo. As to conditions: injected into L5D3 abdomens, events related to pupal formation. How it is done:
as §1

In the next assay the test system is antiecdysone antiserum. Briefly: Binding by antiecdysone antiserum (radioimmunoassay). How it is done:
The invention will now be further described by way of exemplification and by reference to the drawings in which; • Figure 1. Both 20-hydroxyecdysone and Example No. 3 induce process elaboration (A) and inhibition of cell proliferation (B) in Kr cells in a dose-dependent manner. Initial cell density was 2 X 10^6 cells/ml; after incubation of 1 ml aliquots of the cells with the compound for 48 hours the cells were triturated gently and the percentage of cells responding (with processes longer than approximately 17 um, see Cherbas et al. 189 Wilhelm Roux's Arch. 1 (1980)) and total cell density was determined by hemocytom- eter counting, relative to ethanol (1 ul)-treated controls. Determinations were in triplicate for each dose. […] Induction of acetylcholinesterase by varying concentrations of 20-hydroxyecdysone and Example No. 3. Kr cells at an initial density of 3 X 10^6 cells/ml (10 ml per sample) were incubated with the agonist for three days. After harvesting, by centrifugation at 3000 X g, the cell pellets were washed with Robb's Drosophila saline (18, 2 X 5 ml) at 4 ° C, then lysed by sonication in 1 ml of phosphate buffer (pH 7.4, I = 0.1 M) containing 0.5 M NaCI, 0.25 M EDTA and 0.5% TRITON? X-100. See Cherbas, 197 Science 275 (1977). Triton is a registered trademark of Rohm and Haas Company for a alkylaryl polyoxyethylene glycol surfactant. After centrifugation at 16,000 X g, the supernatants were assayed for acetylcholinesterase activity by an adaptation of the method of Ellman et al., 7 Biochem. Pharmacol. 88 (1961), by subtracting out any 412 nm absorbance observed in incubations in the presence of 2 X 10-5 eserine sulfate. […] Absorbance at 412 nm was then measured. Protein concentration in extracts was measured by the Biorad method. […] Ecdysteroid titers were measured by a radioimmunoassay adapted from Warren et al., 40 Experientia 393 (1984) with Protein A-Staph. aureus suspension (Sigma) used as the reagent to separate bound from free ligand. […]

For assay [3], the system named is dipteran larvae (both houseflies and mosquitoes) and certain coleopteran larvae. As to the kind of experiment: Control of larvae and ovariole development in other insect orders. In kind it is in vivo. The source says: We have observed the induction of premature head capsule apolysis by Example No. 3 in all larval stages of M. sexta. This phenomenon has also been observed in larval Lepidoptera of the families Noctuidae, Pyralidae and Pieridae. […] This latter activity is consistent with its putative ecdysonergic mechanism of action.

The mark [4] stands for this setting: L4 M. sexta, 10 ppm in artificial diet.

As to `CC(C)(C)N(NC(=O)c1ccccc1)C(=O)c1ccccc1` [Example No. 3, N'-t-butyl-N,N'-dibenzoylhydrazine], in the assay on M. sexta (L4D0 animals, within four hours after the initiation of feeding), the “ecdysone titers relative to control levels” value was “significantly depressed”. The “outcome of the molt” value in the assay on M. sexta (L4 M. sexta treated larvae) is “eventually died without completing the molt”. In the assay on M. sexta (setting [4]), the “feeding and weight gain” value was “further feeding and weight gain ceases”; the immunoreactive ecdysone titers result is “without any elevation of ecdysone titers”; the “time to head capsule slippage” value worked out at 24 h. In addition, the “fold more potent than 20-hydroxyecdysone” value in assay [1] came to 30 fold. In assay [2], the “times as potent as 20-hydroxyecdysone” value worked out at 30 times. In the assay on antiecdysone antiserum (1 X 10^-4 M), the “binding by antiecdysone antiserum” value is listed as “not significantly bound”. Moreover, in the assay with antiecdysone antiserum (antiecdysone antiserum), the “fold lower binding affinity than 20-hydroxyecdysone” value is on record as over 3125 fold. In addition, the control of larvae entry in assay [3] (houseflies, mosquitoes, certain coleopteran larvae) is “controls”. Besides, the ovariole development entry in assay [3] (in all three orders) is listed as “inhibit ovariole development”.
